Data taken from US20180318311A1, “TRICYCLIC 2-QUINOLINONES AS ANTIBACTERIALS” (priority 2017, published 2018).
Values after ≈ are worked out from the molar mass of the structure shown. Like-named read-outs stand apart in the source and are kept apart here.

Assays:
Type in all cases: cell-based
[1] = system: S. pneumoniae ATCC 25922 (NB07001); test: MIC by broth microdilution, S. pneumoniae NB07001; settings: Streptococcus pneumoniae, read-out: Antibacterial activity (MIC) NB07001
Summary of the method: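 CAMHB, ~5×10^5 CFU/mL, 2-fold serial dilutions (final DMSO 1%), 35° C, ambient air, 20 h. Read OD600 plus visual check; MIC = lowest conc. with no visible growth, μg/mL.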

[2] = system: E. faecalis ATCC 29212 (NB04001); test: MIC by broth microdilution, E. faecalis NB04001; settings: Enterococcus faecalis, ATCC29212, CAMHB, 35° C., 20 hours, read-out: Antibacterial activity (MIC) NB04001
Summary of the method: (§1)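 CLSI broth microdilution in cation-adjusted Mueller-Hinton broth, inoculum about 5×10^5 CFU/mL from overnight MHA cultures. Two-fold compound dilutions in 1% final DMSO; plates incubated 20 h at 35° C in ambient air. MIC (μg/mL) was the lowest concentration preventing visible growth, checked by OD600 and visual inspection.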

[3] = system: S. aureus NB01080 fluoroquinolone-resistant clinical isolate; test: MIC by broth microdilution, S. aureus NB01080; settings: Staphylococcus aureus, CAMHB, 35° C., 20 hours, read-out: Antibacterial activity (MIC) NB01080
Summary of the method: as §1

[4] = system: E. coli ATCC 25922 (NB27001); test: MIC by broth microdilution, E. coli NB27001; settings: Escherichia coli, ATCC25922, CAMHB, 35° C., 20 hours, read-out: Antibacterial activity (MIC) NB27001
Summary of the method: as §1

[5] = system: S. aureus ATCC 49951 (NB01006); test: MIC by broth microdilution, S. aureus NB01006; settings: Staphylococcus aureus, ATCC49951, CAMHB, 35° C., 20 hours, read-out: Antibacterial activity (MIC) NB01006
Summary of the method: as §1

[6] = system: P. aeruginosa NB52019, wild-type PAO1 strain; test: MIC by broth microdilution, P. aeruginosa NB52019; settings: Pseudomonas aeruginosa, CAMHB, 35° C., 20 hours, read-out: Antibacterial activity (MIC) NB52019
Summary of the method: as §1

[7] = system: S. aureus NB01006-AVR005, gyrA (S84L), grlA (580F) and grlB (E471K); test: microbe, parasite or virus in culture; settings: Staphylococcus aureus, 20 h, read-out: Antibacterial activity (MIC) NB01006-AVR005
Summary of the method: as §1

[8] = ATCC25922, S. pneumoniae, CAMHB supplemented with 5% lysed horse blood, 35° C., 20 hours

Row | SMILES | MIC ([1]; ATCC25922, 20 h) [µg/mL] | MIC [2] [µg/mL] | MIC [3] [µg/mL] | MIC [4] [µg/mL] | MIC [5] [µg/mL] | MIC [6] [µg/mL] | MIC [7] [µg/mL] | MIC [1, 8] [µg/mL]
1 | C[C@H]1COc2c(N3CCC(C4(N)COC4)C3)c(F)cc3cc(C(=O)O)c(=O)n1c23 (stereo partly drawn) [Example 1.9, (3S)-10-(3-(3-aminooxetan-3-yl)pyrrolidin-1-yl)-9-fluoro-3-methyl-5-oxo-2,3-dihydro-5H-[1,4]oxazino[2,3,4-ij]quinoline-6-carboxylic acid] | 1 to 32 (≈ 2.48 to 79.3 µM) | > 32 | > 32 | > 32 | 1 to 32 (≈ 2.48 to 79.3 µM) | > 32 | > 32 | –
2 | CO/N=C1\CN(c2c(F)cc3cc(C(=O)O)c(=O)n4c3c2OC[C@@H]4C)CC1CN (stereo partly drawn) [Example 1.40, (3S)-10-((Z)-3-(aminomethyl)-4-(methoxyimino)pyrrolidin-1-yl)-9-fluoro-3-methyl-5-oxo-2,3-dihydro-5H-[1,4]oxazino[2,3,4-ij]quinoline-6-carboxylic acid] | < 1 | 1 to 32 (≈ 2.47 to 79.1 µM) | 1 to 32 (≈ 2.47 to 79.1 µM) | 1 to 32 (≈ 2.47 to 79.1 µM) | 1 to 32 (≈ 2.47 to 79.1 µM) | > 32 | 1 to 32 (≈ 2.47 to 79.1 µM) | –
3 | C[C@H]1COc2c(N3CC4CNCC4C3)c(F)cc3cc(C(=O)O)c(=O)n1c23 (stereo partly drawn) [Example 1.37, (3S)-9-fluoro-10-(hexahydropyrrolo[3,4-c]pyrrol-2(1H)-yl)-3-methyl-5-oxo-2,3-dihydro-5H-[1,4]oxazino[2,3,4-ij]quinoline-6-carboxylic acid] | > 32 | > 32 | > 32 | > 32 | > 32 | > 32 | > 32 | –
4 | C[C@H]1COc2c(N3CCN4C5CCC(C5)C4C3)c(F)cc3cc(C(=O)O)c(=O)n1c23 (stereo partly drawn) [Example 1.63, (3S)-9-fluoro-3-methyl-10-(octahydro-2H-6,9-methanopyrido[1,2-a]pyrazin-2-yl)-5-oxo-2,3-dihydro-5H-[1,4]oxazino[2,3,4-ij]quinoline-6-carboxylic acid] | – | > 32 | > 32 | 1 to 32 (≈ 2.42 to 77.4 µM) | > 32 | > 32 | > 32 | > 32
5 | C[C@H]1COc2c(N3C4CCC3CC4)c(F)cc3cc(C(=O)O)c(=O)n1c23 [Example 1.61, (S)-10-(7-azabicyclo[2.2.1]heptan-7-yl)-9-fluoro-3-methyl-5-oxo-2,3-dihydro-5H-[1,4]oxazino[2,3,4-ij]quinoline-6-carboxylic acid] | – | > 32 | > 32 | > 32 | > 32 | > 32 | > 32 | > 32
6 | C[C@H]1COc2c(N3CC4CCCC4(CN)C3)c(F)cc3cc(C(=O)O)c(=O)n1c23 (single isomer, unassigned) [Example 1.50] | < 1 | 1 to 32 (≈ 2.49 to 79.7 µM) | 1 to 32 (≈ 2.49 to 79.7 µM) | > 32 | < 1 | > 32 | 1 to 32 (≈ 2.49 to 79.7 µM) | –
7 | C[C@H]1COc2c(N3CCC4CCNCC4C3)c(F)cc3cc(C(=O)O)c(=O)n1c23 (single isomer, unassigned) [Example 1.29] | > 32 | > 32 | > 32 | > 32 | > 32 | > 32 | > 32 | –
8 | CC(O)C1(F)CCN(c2c(F)cc3cc(C(=O)O)c(=O)n4c3c2OC[C@@H]4C)C1 (stereo partly drawn) [Example 1.44, (3S)-9-fluoro-10-(3-fluoro-3-(1-hydroxyethyl)pyrrolidin-1-yl)-3-methyl-5-oxo-2,3-dihydro-5H-[1,4]oxazino[2,3,4-ij]quinoline-6-carboxylic acid] | 1 to 32 (≈ 2.54 to 81.1 µM) | 1 to 32 (≈ 2.54 to 81.1 µM) | > 32 | 1 to 32 (≈ 2.54 to 81.1 µM) | < 1 | > 32 | > 32 | –
9 | C[C@H](N)[C@@H]1CCN(c2c(F)c(Cl)c3cc(C(=O)O)c(=O)n4c3c2OC[C@@H]4C)C1 [Example 19.2, (S)-10-((R)-3-((S)-1-aminoethyl)pyrrolidin-1-yl)-8-chloro-9-fluoro-3-methyl-5-oxo-2,3-dihydro-5H-[1,4]oxazino[2,3,4-ij]quinoline-6-carboxylic acid] | < 1 | < 1 | < 1 | < 1 | < 1 | 1 to 32 (≈ 2.44 to 78.1 µM) | < 1 | –
10 | C[C@@H]1COc2c(N3CC[C@@H](C4(N)CC4)C3)c(F)cc3cc(C(=O)O)c(=O)n1c23 [Example 1.21, (R)-10-((R)-3-(1-aminocyclopropyl)pyrrolidin-1-yl)-9-fluoro-3-methyl-5-oxo-2,3-dihydro-5H-[1,4]oxazino[2,3,4-ij]quinoline-6-carboxylic acid] | 1 to 32 (≈ 2.58 to 82.6 µM) | > 32 | > 32 | > 32 | 1 to 32 (≈ 2.58 to 82.6 µM) | > 32 | > 32 | –
11 | CNC[C@@H]1CCN(c2c(F)cc3cc(C(=O)O)c(=O)n4c3c2OC[C@@H]4C)C1 [Example 1.41, (S)-9-fluoro-3-methyl-10-((S)-3-((methylamino)methyl)pyrrolidin-1-yl)-5-oxo-2,3-dihydro-5H-[1,4]oxazino[2,3,4-ij]quinoline-6-carboxylic acid] | < 1 | 1 to 32 (≈ 2.66 to 85.2 µM) | 1 to 32 (≈ 2.66 to 85.2 µM) | 1 to 32 (≈ 2.66 to 85.2 µM) | < 1 | > 32 | 1 to 32 (≈ 2.66 to 85.2 µM) | –
12 | C[C@H]1COc2c(N3Cc4cncnc4C3)c(F)cc3cc(C(=O)O)c(=O)n1c23 [Example 1.31, (S)-10-(5,7-dihydro-6H-pyrrolo[3,4-d]pyrimidin-6-yl)-9-fluoro-3-methyl-5-oxo-2,3-dihydro-5H-[1,4]oxazino[2,3,4-ij]quinoline-6-carboxylic acid] | < 1 | 1 to 32 (≈ 2.62 to 83.7 µM) | 1 to 32 (≈ 2.62 to 83.7 µM) | 1 to 32 (≈ 2.62 to 83.7 µM) | < 1 | > 32 | > 32 | –
13 | C[C@H]1COc2c(N3CCN4C[C@@H](F)C[C@H]4C3)c(F)cc3cc(C(=O)O)c(=O)n1c23 [Example 1.73, (S)-9-fluoro-10-((7S,8aS)-7-fluorohexahydropyrrolo[1,2-a]pyrazin-2(1H)-yl)-3-methyl-5-oxo-2,3-dihydro-5H-[1,4]oxazino[2,3,4-ij]quinoline-6-carboxylic acid] | > 32 | > 32 | > 32 | 1 to 32 (≈ 2.47 to 78.9 µM) | 1 to 32 (≈ 2.47 to 78.9 µM) | > 32 | > 32 | –
14 | C[C@H]1COc2c(N3CC4CC4(N)C3)c(F)c(F)c3cc(C(=O)O)c(=O)n1c23 (single isomer, unassigned) [Example 13.6] | < 1 | < 1 | < 1 | 1 to 32 (≈ 2.65 to 84.8 µM) | < 1 | > 32 | 1 to 32 (≈ 2.65 to 84.8 µM) | –
15 | C[C@H]1COc2c(N3CCC4(CCC4N)CC3)c(F)cc3cc(C(=O)O)c(=O)n1c23 (single isomer, unassigned) [Example 1.32] | 1 to 32 (≈ 2.49 to 79.7 µM) | 1 to 32 (≈ 2.49 to 79.7 µM) | > 32 | > 32 | 1 to 32 (≈ 2.49 to 79.7 µM) | > 32 | > 32 | –
16 | CNC1([C@@H]2CCN(c3c(F)cc4cc(C(=O)O)c(=O)n5c4c3OC[C@@H]5C)C2)CC1 [Example 1.12, (S)-9-fluoro-3-methyl-10-((R)-3-(1-(methylamino)cyclopropyl)pyrrolidin-1-yl)-5-oxo-2,3-dihydro-5H-[1,4]oxazino[2,3,4-ij]quinoline-6-carboxylic acid] | < 1 | 1 to 32 (≈ 2.49 to 79.7 µM) | 1 to 32 (≈ 2.49 to 79.7 µM) | 1 to 32 (≈ 2.49 to 79.7 µM) | < 1 | > 32 | 1 to 32 (≈ 2.49 to 79.7 µM) | –
17 | C[C@H]1COc2c(N3C[C@H](F)[C@@H](C4(N)CC4)C3)c(F)cc3cc(C(=O)O)c(=O)n1c23 [Example 1.74, (S)-10-((3R,4R)-3-(1-aminocyclopropyl)-4-fluoropyrrolidin-1-yl)-9-fluoro-3-methyl-5-oxo-2,3-dihydro-5H-[1,4]oxazino[2,3,4-ij]quinoline-6-carboxylic acid] | < 1 | 1 to 32 (≈ 2.47 to 78.9 µM) | 1 to 32 (≈ 2.47 to 78.9 µM) | 1 to 32 (≈ 2.47 to 78.9 µM) | < 1 | > 32 | 1 to 32 (≈ 2.47 to 78.9 µM) | –
18 | C[C@H]1COc2c(N3CCC(=C(Cl)CN)CC3)c(F)cc3cc(C(=O)O)c(=O)n1c23 [Example 1.10, (S)-10-(4-(2-amino-1-chloroethylidene)piperidin-1-yl)-9-fluoro-3-methyl-5-oxo-2,3-dihydro-5H-[1,4]oxazino[2,3,4-ij]quinoline-6-carboxylic acid] | < 1 | 1 to 32 (≈ 2.37 to 75.9 µM) | 1 to 32 (≈ 2.37 to 75.9 µM) | > 32 | 1 to 32 (≈ 2.37 to 75.9 µM) | > 32 | > 32 | –
19 | C[C@H]1COc2c(N3CCC(F)(CN)C3)c(F)c(F)c3cc(C(=O)O)c(=O)n1c23 (stereo partly drawn) [Example 13.5, (3S)-10-(3-(aminomethyl)-3-fluoropyrrolidin-1-yl)-8,9-difluoro-3-methyl-5-oxo-2,3-dihydro-5H-[1,4]oxazino[2,3,4-ij]quinoline-6-carboxylic acid] | < 1 | < 1 | 1 to 32 (≈ 2.52 to 80.5 µM) | 1 to 32 (≈ 2.52 to 80.5 µM) | < 1 | > 32 | 1 to 32 (≈ 2.52 to 80.5 µM) | –
